Data reported in article PMC6949291, “An evolutionarily conserved iron-sulfur cluster underlies redox sensory function of the Chloroplast Sensor Kinase” (Communications Biology, 2020).

How the values were obtained:
[1] = target: T1, Syn-CSK (Hik2) (Synechocystis sp. PCC 6803, UniProt P73276); experiment: autophosphorylation, autoradiography; assay type: biochemical; conditions: 0.5 mM, MgCl2, pH 8, 22 °C, reductant of the [3Fe-4S] cluster, inhibitor of autokinase activity
T1 construct: octamer

[2] = target: the molecule itself; experiment: SEC; Superdex 200 10/300GL Increase; air-oxidized protein eluted with 20 mM Tris-HCl pH 8 and 10 mM NaCl (legend; methods say 20 mM NaCl), or the same buffer with 2 mM sodium dithionite; mass from a calibration curve

Question: With `Cc1c(C)c(O)c(C)c(C)c1O` [duroquinol] as the molecule, how does the “autophosphorylation with [γ-^32P]ATP, autoradiography” value [1] read?
Answer: Treatment with reducing agents: dithionite, duroquinol, or decylPQH2 inhibit Syn-CSK

B1: Synechocystis sp. PCC 6803 Histidine kinase 2 (Hik2), reconstituted holoprotein (enzyme, UniProt P73276 1-434, looked up)
chain: MAGSISSMYSPSAGLISLCQSQVRLLQQGLRVDWCGVYLNQEETEQGLVPLVVSHGSTLVESESYGLISLPQGEVSPPMDDFSLPAVPVGVGQLSRRSRLEPPPFDADKRLVLPLVYGEEMVGLLVIHRSQGQWHGEEMMQLEAIAKSLAVACLLDQQQDWYRQAWEEQNQQYQWERQHWADLLHQLRNPLTALKTFSKLLLKRWHGDNKSQQVVEGIVRQGEHLQELLQSFEASQSQGPEAVPLLSSSPVTTIQVLPPADRVETMPLANFSLGEVLPPILLAHQAIAAERNITLTAQIALIDTVVMANRLALREVVNNLLDNGIKYTPNGGLVEVSLALEKVSSSGMDWATLAIADTGYGIPPEDQQKIFERNYRGVQGRGSINGTGLGLAIVADLVAQMGGKITVTSPNGLSRDPDQPGSTFTLWLRSGEQV
notes: Histidine kinase 2 (Hik2, slr1147), the cyanobacterial CSK homologue, Synechocystis sp; Each monomer carries one [3Fe-4S] cluster (holoprotein after reconstitution with iron and sulfide); also called Syn-CSK; holoSyn-CSK
Question: For B1, which “stoichiometry N” value [2] is on record?
Answer: 8
